Measurements published in patent US7038028B1, “Gene encoding promoter domain of tumor suppressor gene P51 and use thereof” (Toshiyuki Sakai, priority 1999, dated 2006).
Entries after “also recorded” stand apart in the source; their conditions may differ.

Experiments:
Format in all cases: cell-based, human
[1] = test system: p51A mRNA; assay: Northern blotting of the amount of p51 expressed in HCT116 cells after stimulation with drugs; conditions: 24 hours treatment, 1 μg/ml trichostatin A, Northern blotting of 20 μg RNA
Procedure: A variety of stimulations including stimulation with a drug were applied to a cell line HCT116 derived from colon cancer to investigate changes in the amount expressed of p51 by Northern blotting. 200,000 cells of HCT116 cells were plated on a culture dish with a diameter of 60 mm, and cultured in the presence of 5% carbon dioxide at 37° C. for two days. The medium used was McCOY's 5A (manufactured by Nisseiken) to which fetal bovine serum (FBS) was added to a final concentration of 10% (referred to hereinafter as McCOY's 5A/10% FBS). Then it was treated with A23187 (0.1 μM, 1 μM), cisplatin (1 μg/ml, 10 μg/ml), CPTcAMP (0.1 μM, 1 μM), etoposide (10 μg/ml, 0.1 μg/ml), genistein (1 μM, 10 μM), ML-236B (1 μg/ml, 10 μg/ml), milurinone (1 μM, 10 μM), mitomycin C (5 μg/ml, 50 μg/ml), NKH477 (0.1 μM, 1 μM), okadaic acid (1 nM, 10 nM), radicicol (0.1 μg/ml, 1 μg/ml), staurosporin (1 nM, 10 nM), taxol (1 μg/ml, 10 μg/ml), trichostatin A (0.1 μg/ml, 1 μg/ml), radiation (50 J/m^2, 100 J/m^2), vitamin D3 (10 nM, 100 nM), vincristine (1 μg/ml, 10 μg/ml), and wortmannin (0.1 μM, […]), and further cultured in the presence of 5% carbon dioxide at 37° C. for 24 hours. Then, from the cells, RNA was prepared using ISOGEN (manufactured by Nippongene). […] Then, the membrane was analyzed on autoradiography.

[2] = test system: p51 promoter; assay: Luciferase reporter assay in HCT116 cells transiently transfected with pGL2-neo/p51 promoter; conditions: HCT116, 1 μg/ml trichostatin A vs 0, 24 hours
Procedure: Subsequently, the following experiment was carried out in order to perform functional analysis of the p51 promoter region. 200,000 cells of HCT116 were plated on a culture dish with a diameter of 60 mm. The medium used was McCOY's 5A/10% FBS. These were cultured in the presence of 5% carbon dioxide at 37° C. for 48 hours. The medium was replaced with McCOY's 5A containing no serum. Subsequently, 2 μg each of pGL2-neo/p51 promoter or pGL2-neo vector was introduced. The plasmid was introduced using the lipofectamine plus reagent (manufactured by GIBCO BRL). Thus, 125 μl of McCOY's 5A and 8 μl of the plus solution were added to the plasmid solution, stirred well, and then incubated at room temperature for 15 minutes. To this solution, 125 μl of McCOY's 5A and 12 μl of lipofectamine solution were added, stirred well, and then incubated at room temperature for further 15 minutes. This was added to the HCT116 cells incubated by the above procedure, gently mixed, and cultured in the presence of 5% carbon dioxide at 37° C. for three hours to introduce plasmid. Subsequently, the medium was replaced with McCOY's 5A/10% FBS, and cultured in the presence of 5% carbon dioxide at 37° C. for 21 hours. […] For these cells, the luciferase activity was determined to investigate promoter activity. […] The luciferase activity was determined according to the following method. […]

[3] = test system: p51 promoter; assay: Luciferase assay in geneticin-selected HCT116/p51 promoter clones
Procedure: The medium in the cell culture dish was removed, and 5 ml of the cell lysis reagent (25 mM Tris-HCl, pH 7.8, 2 mM dithiothreitol, 2 mM CDTA, 0.2% triton X-100, 10% glycerol) was added and incubated at room temperature for 15 minutes.
As the plasmid-introduced cells, the HCT116 cell line was used. 500,000 cells of HCT116 cell were plated on a cuture dish with a diameter of 60 mm. The medium used was McCOY's 5A/10% FBS. These were cultured in the presence of 5% carbon dioxide at 37° C. for 48 hours. The medium was replaced with McCOY's 5A containing no serum. As the plasmid for introduction, two μg of pGL2-neo/p51 promoter was dissolved in 4 μl of the TE solution to prepare a plasmid solution. The plasmid was introduced using the lipofectamine plus reagent (manufactured by GIBCO BRL). Thus, 125 μl of McCOY's 5A and 8 μl of the plus solution were added to the plasmid solution, stirred well, and then incubated at room temperature for 15 minutes. To this solution, 125 μl of McCOY's 5A and 12 μl of the lipofectamine solution were added, stirred well, and then incubated at room temperature for further 15 minutes. This was added to the HCT116 cells cultured by the above procedure, gently mixed, and incubated in the presence of 5% carbon dioxide at 37° C. for three hours to permit the introduction of the plasmid. Subsequently, the medium was replaced with McCOY's 5A/10% FBS, and incubated in the presence of 5% carbon dioxide at 37° C. for 21 hours. Then, the cells were recovered from the culture dish with PBS containing 0.25% trypsin and 0.02% EDTA, and 1% amount thereof was plated onto a culture dish with a diameter of 100 mm. It was further cultured in McCOY's 5A/10% FBS medium in the presence of 5% carbon dioxide at 37° C. for further 72 hours, and then 1.2 mg/ml of geneticin (manufactured by Nacalai Tesque) was added as a selection drug. By replacing the medium every three days, and further culturing in the above condition for further two weeks, the cells into whose genes the plasmid gene was introduced, and became geneticin-resistant, were selected. Subsequently, 50 clones were isolated from the cell group that formed colonies on the dish, and were plated on a 24-well culture dish to continue being cultured.
Thus, the reactivity of these clones to trichostatin A was investigated by the following procedure. 500,000 cells each of the cloned cells were plated on a cuture dish with a diameter of 60 mm. The medium used was McCOY's 5A/10% FBS. These were cultured in the presence of 5% carbon dioxide at 37° C. for 48 hours. Then, trichostatin A was added to the two groups of cells to a final concentration of 0 or 0.1 μg/ml, and cultured in the presence of 5% carbon dioxide at 37° C. for 24 hours. For these cells, their luciferase activity was determined to examine the effect on the p51 promoter activity. The luciferase activity was determined according to the above method.

measured values of luciferase activity, clone #5 ([3]; HCT116/p51 promoter clone #5, with TsA 0.1 μg/ml, 24 hours (without TsA 3.9)): 29.5 | measured values of luciferase activity, clone #9 ([3]; HCT116/p51 promoter clone #9, with TsA 0.1 μg/ml, 24 hours (without TsA 1.0)): 33.3 | measured values of luciferase activity, clone #17 ([3]; HCT116/p51 promoter clone #17, with TsA 0.1 μg/ml, 24 hours (without TsA 17.0)): 44.1 | measured values of luciferase activity, clone #18 ([3]; HCT116/p51 promoter clone #18, with TsA 0.1 μg/ml, 24 hours (without TsA 6.8)): 14.0
Structure (SMILES): CC(/C=C/C(=O)NO)=C\[C@@H](C)C(=O)c1ccc(N(C)C)cc1 [trichostatin A]
amount of p51A mRNA (specific band that reacts with p51A-derived cDNA) [1]: transactivates p51; also recorded: specific band that reacts with p51A-derived cDNA was only observed | luciferase activity (fluorescence/chemiluminescence intensity) of pGL2-neo/p51 promoter-introduced cells [2]: further remarkably enhanced; also recorded: markedly enhanced | luciferase activity of cloned cells ([3]; several clones, 0.1 μg/ml trichostatin A, 24 hours): significantly enhanced luciferase activity
